Results on 2 molecules are retold here after paper PMC10173323 (ACS Omega, 2023).

This assay addresses DNA gyrase (Escherichia coli, UniProt P0AES4+P0AES6). Nature of the assay: DNA supercoiling gel assay. The format is biochemical.

DNA gyrase, sequence (P0AES4 2-875, one chain of several): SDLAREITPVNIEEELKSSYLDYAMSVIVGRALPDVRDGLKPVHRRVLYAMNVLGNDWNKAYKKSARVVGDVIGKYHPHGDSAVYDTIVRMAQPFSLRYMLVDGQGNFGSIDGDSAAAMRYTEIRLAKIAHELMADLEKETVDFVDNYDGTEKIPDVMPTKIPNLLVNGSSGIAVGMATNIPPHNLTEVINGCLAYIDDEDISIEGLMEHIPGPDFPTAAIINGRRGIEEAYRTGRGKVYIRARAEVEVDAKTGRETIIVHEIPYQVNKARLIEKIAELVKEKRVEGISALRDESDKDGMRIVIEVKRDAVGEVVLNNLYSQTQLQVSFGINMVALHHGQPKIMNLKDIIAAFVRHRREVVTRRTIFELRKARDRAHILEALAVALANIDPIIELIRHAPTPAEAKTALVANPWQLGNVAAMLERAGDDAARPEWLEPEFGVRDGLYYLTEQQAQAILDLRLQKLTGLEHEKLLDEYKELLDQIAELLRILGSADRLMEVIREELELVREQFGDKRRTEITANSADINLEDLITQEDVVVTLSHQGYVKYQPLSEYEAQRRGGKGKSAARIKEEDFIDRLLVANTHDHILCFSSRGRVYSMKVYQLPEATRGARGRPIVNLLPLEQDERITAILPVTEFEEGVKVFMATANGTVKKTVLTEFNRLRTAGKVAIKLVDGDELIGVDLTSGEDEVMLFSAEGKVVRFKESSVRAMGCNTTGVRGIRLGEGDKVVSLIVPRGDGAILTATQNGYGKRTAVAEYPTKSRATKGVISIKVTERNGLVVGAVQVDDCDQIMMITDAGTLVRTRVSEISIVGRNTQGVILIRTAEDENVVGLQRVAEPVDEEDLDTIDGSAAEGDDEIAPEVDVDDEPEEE

`O=c1c(-c2ccc(O)cc2)coc2cc(O)ccc12` [daidzein]: half-maximal inhibition (IC50) required 165 nM.

`COc1c2occc2c(OC)c2c(=O)cc(C)oc12` [khellin] showed an IC50 of 3160 nM.

In general, IC50 refers to the concentration needed to halve the response being measured.
